Measurements reported in ChEMBL document CHEMBL1138068 (J Med Chem, 2006).
Activity calls are given as the source filed them. The rule behind the calls is not given here.

Legend:
[1] = target: Neuronal acetylcholine receptor subunit alpha-7 (Rattus norvegicus, UniProt Q05941); test: Displacement of [125I]alpha-BTX from alpha-7 nAChR in rat hippocampus membrane; type: cell membranes
[2] = Cmax in rat at 30 mg/kg, po; type: ADME, organism-based; design: dose 30 mg/kg, route oral; settings: in vivo
[3] = Oral bioavailability in monkey at 1 mg/kg, po; type: ADME, organism-based, Macaca mulatta; settings: rhesus monkey, in vivo
Cytochrome P450 2D6 = Cytochrome P450 2D6 (Homo sapiens, UniProt P10635); test: Inhibition of CYP2D6; type: ADME
[4] = Clearance in monkey at 3 mg/kg, iv; type: ADME, organism-based, Macaca mulatta; design: dose 3 mg/kg, route intravenous; settings: rhesus monkey, in vivo
[5] = AUC (0-infinity) in monkey at 10 mg/kg, po; type: ADME, organism-based, Macaca mulatta; design: time infinity, dose 10 mg/kg, route oral; settings: rhesus monkey, plasma
[6] = Tmax in rat at 10 mg/kg, po; type: ADME, organism-based; design: dose 10 mg/kg, route oral; settings: in vivo
Histamine H1 receptor = Histamine H1 receptor (Homo sapiens, UniProt P35367); test: Binding affinity to histamine H1 receptor
[7] = target: Adrenergic receptor alpha-1 (Homo sapiens, UniProt P35348+P25100+P35368); test: Binding affinity to adrenergic alpha-1 receptor; type: protein assay
D(4) dopamine receptor = D(4) dopamine receptor (Homo sapiens, UniProt P21917); test: Binding affinity to D4 receptor
[8] = Permeability in rat assessed as ratio of concentration in brain to plasma at 10 mg/kg, po; type: ADME, organism-based; design: dose 10 mg/kg, route oral; settings: brain and plasma, read-out: BBR
D(1A) dopamine receptor = D(1A) dopamine receptor (Homo sapiens, UniProt P21728); test: Binding affinity to D1 receptor
[9] = Cmax in monkey at 10 mg/kg, po; type: ADME, organism-based, Macaca mulatta; design: dose 10 mg/kg, route oral; settings: rhesus monkey, in vivo
Rattus norvegicus [10] = test: Increase in extracellular dopamine level in Wistar rat medial prefrontal cortex at 30 mg/kg, po; type: functional, organism-based; design: dose 30 mg/kg
[11] = AUC (0-infinity) in monkey at 3 mg/kg, iv; type: ADME, organism-based, Macaca mulatta; design: dose 3 mg/kg, route intravenous, time infinity; settings: rhesus monkey, plasma
[12] = Oral bioavailability in rat at 30 mg/kg, po; type: ADME, organism-based; settings: in vivo
[13] = Volume of distribution in rat at 3 mg/kg, iv; type: ADME, organism-based; design: dose 3 mg/kg, route intravenous; settings: in vivo, read-out: Vss
[14] = Tmax in monkey at 10 mg/kg, po; type: ADME, organism-based, Macaca mulatta; design: dose 10 mg/kg, route oral; settings: rhesus monkey, in vivo
[15] = Half life in monkey at 10 mg/kg, po; type: ADME, organism-based, Macaca mulatta; design: dose 10 mg/kg, route oral; settings: rhesus monkey, in vivo
[16] = target: Serotonin 2 (5-HT2) receptor (Homo sapiens, UniProt P41595+P28223+P28335); test: Binding affinity to 5HT2 receptor; type: protein assay
[17] = AUC (0-infinity) in rat at 10 mg/kg, po; type: ADME, organism-based; design: time infinity, dose 10 mg/kg, route oral; settings: plasma
[18] = Clearance in rat at 3 mg/kg, iv; type: ADME, organism-based; design: dose 3 mg/kg, route intravenous; settings: in vivo
[19] = AUC (0-infinity) in rat at 30 mg/kg, po; type: ADME, organism-based; design: time infinity, dose 30 mg/kg, route oral; settings: plasma
[20] = Half life in rat at 3 mg/kg, iv; type: ADME, organism-based; design: dose 3 mg/kg, route intravenous; settings: in vivo
[21] = target: 5-hydroxytryptamine receptor 3A (Cavia porcellus) (UniProt O70212); test: Antagonist activity against 5HT3 receptor assessed as inhibition of 5HT-induced contraction of guinea pig ileum; type: functional, tissue-based
[22] = target: Glutamate [NMDA] receptor; test: Binding affinity to NMDA receptor PCP site; type: protein-complex assay, Homo sapiens
D(2) dopamine receptor = D(2) dopamine receptor (Homo sapiens, UniProt P14416); test: Binding affinity to D2 receptor
Adrenergic receptor beta = Adrenergic receptor beta (Homo sapiens, UniProt P08588+P07550+P13945); test: Binding affinity to adrenergic beta receptor; type: protein assay
Cytochrome P450 1A2 = Cytochrome P450 1A2 (Homo sapiens, UniProt P05177); test: Inhibition of CYP1A2; type: ADME
Rattus norvegicus [23] = test: Increase in extracellular dopamine level in Wistar rat medial prefrontal cortex at 10 mg/kg, po; type: functional, organism-based; design: dose 10 mg/kg
[24] = Tmax in monkey at 3 mg/kg, po; type: ADME, organism-based, Macaca mulatta; design: dose 3 mg/kg, route oral; settings: rhesus monkey, in vivo
[25] = target: Adrenergic receptor alpha-2 (Homo sapiens, UniProt P08913+P18825+P18089); test: Binding affinity to adrenergic alpha2 receptor; type: protein assay
[26] = Tmax in monkey at 3 mg/kg, iv; type: ADME, organism-based, Macaca mulatta; design: dose 3 mg/kg, route intravenous; settings: rhesus monkey, in vivo
[27] = AUC (0-infinity) in monkey at 1 mg/kg, po; type: ADME, organism-based, Macaca mulatta; design: time infinity, dose 1 mg/kg, route oral; settings: rhesus monkey, plasma
[28] = target: Muscarinic acetylcholine receptor; test: Binding affinity to muscarinic receptor; type: protein assay, Homo sapiens
[29] = target: Glutamate [NMDA] receptor; test: Binding affinity to NMDA receptor glycine site; type: protein-complex assay, Homo sapiens
[30] = Tmax in monkey at 1 mg/kg, po; type: ADME, organism-based, Macaca mulatta; design: dose 1 mg/kg, route oral; settings: rhesus monkey, in vivo
[31] = Cmax in monkey at 3 mg/kg, iv; type: ADME, organism-based, Macaca mulatta; design: dose 3 mg/kg, route intravenous; settings: rhesus monkey, in vivo
Rattus norvegicus [32] = test: Reverse activity against scopolamine-induced impairment of cognitive performance in Wistar rat at 10 mg/kg, po by 8-arm radial maze task method; type: functional, organism-based; design: dose 10 mg/kg
[33] = Half life in monkey at 3 mg/kg, iv; type: ADME, organism-based, Macaca mulatta; design: dose 3 mg/kg, route intravenous; settings: rhesus monkey, in vivo
[34] = target: 5-hydroxytryptamine receptor 1A (Homo sapiens, UniProt P08908); test: Binding affinity to 5HT1A receptor
[35] = target: Serotonin 3 (5-HT3) receptor; test: Binding affinity to 5HT3 receptor; type: protein-complex assay, Homo sapiens
[36] = target: Glutamate receptor ionotropic AMPA (Homo sapiens, UniProt P42261+P42262+P42263+P48058); test: Binding affinity to AMPA receptor; type: protein-complex assay
[37] = Half life in rat at 30 mg/kg, po; type: ADME, organism-based; design: dose 30 mg/kg, route oral; settings: in vivo
[38] = Oral bioavailability in monkey at 3 mg/kg, po; type: ADME, organism-based, Macaca mulatta; settings: rhesus monkey, in vivo
Rattus norvegicus [39] = test: Reverse activity against scopolamine-induced impairment of cognitive performance in Wistar rat at 3 mg/kg, po by 8-arm radial maze task method; type: functional, organism-based; design: dose 3 mg/kg
[40] = Cmax in rat at 10 mg/kg, po; type: ADME, organism-based; design: dose 10 mg/kg, route oral; settings: in vivo
[41] = Cmax in monkey at 1 mg/kg, po; type: ADME, organism-based, Macaca mulatta; design: dose 1 mg/kg, route oral; settings: rhesus monkey, in vivo
[42] = Half life in monkey at 3 mg/kg, po; type: ADME, organism-based, Macaca mulatta; design: dose 3 mg/kg, route oral; settings: rhesus monkey, in vivo
[43] = Cmax in monkey at 3 mg/kg, po; type: ADME, organism-based, Macaca mulatta; design: dose 3 mg/kg, route oral; settings: rhesus monkey, in vivo
Histamine H3 receptor = Histamine H3 receptor (Homo sapiens, UniProt Q9Y5N1); test: Binding affinity to histamine H3 receptor
[44] = Tmax in rat at 30 mg/kg, po; type: ADME, organism-based; design: dose 30 mg/kg, route oral; settings: in vivo
[45] = Half life in rat at 10 mg/kg, po; type: ADME, organism-based; design: dose 10 mg/kg, route oral; settings: in vivo
D(3) dopamine receptor = D(3) dopamine receptor (Homo sapiens, UniProt P35462); test: Binding affinity to D3 receptor
[46] = target: Neuronal acetylcholine receptor; alpha4/beta2 (Rattus norvegicus, UniProt P09483+P12390); test: Inhibition of [3H]Cytisine binding to alpha-4-beta-2 nACh receptor in rat cerebral cortex membrane; type: cell membranes
Cytochrome P450 2C19 = Cytochrome P450 2C19 (Homo sapiens, UniProt P33261); test: Inhibition of CYP2C19; type: ADME
[47] = target: Neuronal acetylcholine receptor subunit alpha-7 (Homo sapiens) (UniProt P36544); test: Activity at alpha-7 nAChR assessed as stimulation of relative inward current in cultured hippocampal neurons relative to choline; type: functional, tissue-based; settings: Hippocampus, filed as partial agonist
[48] = Half life in monkey at 1 mg/kg, po; type: ADME, organism-based, Macaca mulatta; design: dose 1 mg/kg, route oral; settings: rhesus monkey, in vivo
Cytochrome P450 2C9 = Cytochrome P450 2C9 (Homo sapiens, UniProt P11712); test: Inhibition of CYP2C9; type: ADME
[49] = Oral bioavailability in rat at 10 mg/kg, po; type: ADME, organism-based; settings: in vivo
Cytochrome P450 3A4 = Cytochrome P450 3A4 (Homo sapiens, UniProt P08684); test: Inhibition of CYP3A4; type: ADME
[50] = Oral bioavailability in monkey at 10 mg/kg, po; type: ADME, organism-based, Macaca mulatta; settings: rhesus monkey, in vivo
[51] = Volume of distribution in monkey at 3 mg/kg, iv; type: ADME, organism-based, Macaca mulatta; design: dose 3 mg/kg, route intravenous; settings: rhesus monkey, in vivo, read-out: Vss
Rattus norvegicus [52] = test: Effect on MK-801-induced sensory gating in Wistar rat at 1 mg/kg, sc; type: functional, organism-based; design: dose 1 mg/kg
[53] = AUC (0-infinity) in monkey at 3 mg/kg, po; type: ADME, organism-based, Macaca mulatta; design: time infinity, dose 3 mg/kg, route oral; settings: rhesus monkey, plasma

Sequence of Neuronal acetylcholine receptor subunit alpha-7 (Q05941 whole entry): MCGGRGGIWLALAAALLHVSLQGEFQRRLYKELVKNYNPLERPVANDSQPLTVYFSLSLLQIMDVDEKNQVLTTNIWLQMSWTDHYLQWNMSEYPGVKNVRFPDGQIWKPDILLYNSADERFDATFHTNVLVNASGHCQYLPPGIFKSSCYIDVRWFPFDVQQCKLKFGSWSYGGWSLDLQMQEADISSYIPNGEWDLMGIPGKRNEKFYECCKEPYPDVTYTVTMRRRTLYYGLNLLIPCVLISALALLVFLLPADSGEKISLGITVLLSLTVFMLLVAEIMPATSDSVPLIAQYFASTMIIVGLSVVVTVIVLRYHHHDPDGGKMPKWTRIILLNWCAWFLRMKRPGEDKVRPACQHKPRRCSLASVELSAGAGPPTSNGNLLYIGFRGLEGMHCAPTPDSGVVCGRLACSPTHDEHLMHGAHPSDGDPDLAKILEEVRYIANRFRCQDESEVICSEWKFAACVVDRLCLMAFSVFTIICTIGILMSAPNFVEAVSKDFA
Sequence of Cytochrome P450 2D6 (P10635 whole entry): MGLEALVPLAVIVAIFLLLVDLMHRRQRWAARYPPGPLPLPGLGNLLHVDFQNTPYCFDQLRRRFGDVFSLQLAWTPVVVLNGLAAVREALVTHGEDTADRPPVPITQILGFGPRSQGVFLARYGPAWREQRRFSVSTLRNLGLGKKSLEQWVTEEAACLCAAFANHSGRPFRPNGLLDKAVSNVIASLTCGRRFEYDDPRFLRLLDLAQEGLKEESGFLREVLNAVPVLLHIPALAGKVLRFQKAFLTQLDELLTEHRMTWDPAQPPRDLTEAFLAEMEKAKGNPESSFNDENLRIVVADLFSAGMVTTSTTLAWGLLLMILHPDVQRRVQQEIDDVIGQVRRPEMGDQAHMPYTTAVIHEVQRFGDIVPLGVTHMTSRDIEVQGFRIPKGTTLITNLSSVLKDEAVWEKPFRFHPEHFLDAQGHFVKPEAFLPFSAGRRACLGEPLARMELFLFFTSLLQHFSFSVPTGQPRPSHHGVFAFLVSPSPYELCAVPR
Sequence of 5-hydroxytryptamine receptor 1A (P08908 whole entry): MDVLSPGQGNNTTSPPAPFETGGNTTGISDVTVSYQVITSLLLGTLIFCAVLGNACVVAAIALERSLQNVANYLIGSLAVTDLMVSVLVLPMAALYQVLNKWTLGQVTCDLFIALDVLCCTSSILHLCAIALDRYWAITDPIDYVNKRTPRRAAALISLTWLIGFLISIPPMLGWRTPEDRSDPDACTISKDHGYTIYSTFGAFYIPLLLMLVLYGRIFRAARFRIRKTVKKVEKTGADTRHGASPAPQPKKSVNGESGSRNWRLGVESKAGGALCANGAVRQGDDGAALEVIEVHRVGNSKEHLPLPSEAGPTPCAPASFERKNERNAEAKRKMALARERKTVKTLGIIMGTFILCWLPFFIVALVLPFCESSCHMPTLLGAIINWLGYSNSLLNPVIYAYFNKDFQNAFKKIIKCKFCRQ
Sequence of Cytochrome P450 3A4 (P08684 whole entry): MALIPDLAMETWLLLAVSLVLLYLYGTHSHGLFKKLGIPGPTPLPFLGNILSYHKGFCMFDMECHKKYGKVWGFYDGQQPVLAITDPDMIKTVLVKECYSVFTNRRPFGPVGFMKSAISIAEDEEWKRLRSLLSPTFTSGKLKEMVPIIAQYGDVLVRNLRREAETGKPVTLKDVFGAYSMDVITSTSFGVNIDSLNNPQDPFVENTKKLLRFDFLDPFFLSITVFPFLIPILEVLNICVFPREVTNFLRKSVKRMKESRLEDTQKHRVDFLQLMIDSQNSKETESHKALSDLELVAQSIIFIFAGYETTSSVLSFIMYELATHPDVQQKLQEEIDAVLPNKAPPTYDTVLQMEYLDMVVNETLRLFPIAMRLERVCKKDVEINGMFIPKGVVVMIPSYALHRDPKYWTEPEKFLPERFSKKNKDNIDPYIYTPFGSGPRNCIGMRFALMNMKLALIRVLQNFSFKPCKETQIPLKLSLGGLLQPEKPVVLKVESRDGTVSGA
Sequence of Cytochrome P450 2C9 (P11712 whole entry): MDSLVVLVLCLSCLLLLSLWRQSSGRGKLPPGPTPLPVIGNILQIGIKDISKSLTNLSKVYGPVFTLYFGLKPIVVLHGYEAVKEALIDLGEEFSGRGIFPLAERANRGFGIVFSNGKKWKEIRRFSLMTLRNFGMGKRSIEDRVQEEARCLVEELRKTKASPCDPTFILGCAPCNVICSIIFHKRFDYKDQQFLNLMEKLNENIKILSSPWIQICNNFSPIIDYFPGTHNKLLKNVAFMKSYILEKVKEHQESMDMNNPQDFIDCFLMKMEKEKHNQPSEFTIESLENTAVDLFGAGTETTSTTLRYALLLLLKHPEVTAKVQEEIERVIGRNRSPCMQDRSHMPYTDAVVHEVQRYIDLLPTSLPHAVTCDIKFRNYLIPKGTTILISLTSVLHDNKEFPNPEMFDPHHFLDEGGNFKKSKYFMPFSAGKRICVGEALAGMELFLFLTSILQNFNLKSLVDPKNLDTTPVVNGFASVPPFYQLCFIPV
Sequence of D(1A) dopamine receptor (P21728 whole entry): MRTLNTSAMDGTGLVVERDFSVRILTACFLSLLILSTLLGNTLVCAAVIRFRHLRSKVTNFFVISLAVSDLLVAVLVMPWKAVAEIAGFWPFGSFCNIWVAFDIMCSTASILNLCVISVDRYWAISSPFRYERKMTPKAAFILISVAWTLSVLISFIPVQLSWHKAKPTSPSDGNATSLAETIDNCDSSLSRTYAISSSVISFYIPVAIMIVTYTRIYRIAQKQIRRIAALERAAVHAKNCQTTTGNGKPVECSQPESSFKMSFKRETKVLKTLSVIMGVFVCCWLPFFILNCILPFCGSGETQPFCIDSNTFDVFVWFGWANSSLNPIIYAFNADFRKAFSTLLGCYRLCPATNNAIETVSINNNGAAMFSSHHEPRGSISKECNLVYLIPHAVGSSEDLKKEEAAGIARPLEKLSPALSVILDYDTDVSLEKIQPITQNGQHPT
Sequence of Histamine H1 receptor (P35367 whole entry): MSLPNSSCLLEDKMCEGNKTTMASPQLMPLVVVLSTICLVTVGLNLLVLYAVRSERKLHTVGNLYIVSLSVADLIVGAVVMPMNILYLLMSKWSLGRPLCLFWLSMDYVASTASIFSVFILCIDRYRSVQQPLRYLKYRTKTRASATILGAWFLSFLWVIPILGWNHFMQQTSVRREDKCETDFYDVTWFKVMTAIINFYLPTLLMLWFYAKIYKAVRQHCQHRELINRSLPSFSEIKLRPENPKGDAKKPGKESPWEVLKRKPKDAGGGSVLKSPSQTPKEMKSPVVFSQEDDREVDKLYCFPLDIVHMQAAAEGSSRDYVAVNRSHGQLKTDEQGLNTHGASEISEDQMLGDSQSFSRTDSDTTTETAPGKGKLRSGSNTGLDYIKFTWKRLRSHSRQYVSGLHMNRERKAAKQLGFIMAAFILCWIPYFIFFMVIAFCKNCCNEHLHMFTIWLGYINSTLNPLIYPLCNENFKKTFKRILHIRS
Sequence of D(2) dopamine receptor (P14416 whole entry): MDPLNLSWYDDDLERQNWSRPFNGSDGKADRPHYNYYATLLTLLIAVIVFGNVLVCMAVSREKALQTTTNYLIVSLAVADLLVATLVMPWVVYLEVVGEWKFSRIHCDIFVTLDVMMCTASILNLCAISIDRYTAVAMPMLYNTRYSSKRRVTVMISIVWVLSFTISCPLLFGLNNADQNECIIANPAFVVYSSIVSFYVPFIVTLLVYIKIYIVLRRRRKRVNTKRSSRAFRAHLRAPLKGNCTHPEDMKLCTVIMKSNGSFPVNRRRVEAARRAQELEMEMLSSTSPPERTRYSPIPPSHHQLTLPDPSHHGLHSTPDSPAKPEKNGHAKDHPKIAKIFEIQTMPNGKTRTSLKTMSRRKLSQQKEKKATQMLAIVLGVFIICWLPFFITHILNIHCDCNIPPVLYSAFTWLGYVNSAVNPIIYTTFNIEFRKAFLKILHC
Sequence of 5-hydroxytryptamine receptor 3A (Cavia porcellus) (O70212 whole entry): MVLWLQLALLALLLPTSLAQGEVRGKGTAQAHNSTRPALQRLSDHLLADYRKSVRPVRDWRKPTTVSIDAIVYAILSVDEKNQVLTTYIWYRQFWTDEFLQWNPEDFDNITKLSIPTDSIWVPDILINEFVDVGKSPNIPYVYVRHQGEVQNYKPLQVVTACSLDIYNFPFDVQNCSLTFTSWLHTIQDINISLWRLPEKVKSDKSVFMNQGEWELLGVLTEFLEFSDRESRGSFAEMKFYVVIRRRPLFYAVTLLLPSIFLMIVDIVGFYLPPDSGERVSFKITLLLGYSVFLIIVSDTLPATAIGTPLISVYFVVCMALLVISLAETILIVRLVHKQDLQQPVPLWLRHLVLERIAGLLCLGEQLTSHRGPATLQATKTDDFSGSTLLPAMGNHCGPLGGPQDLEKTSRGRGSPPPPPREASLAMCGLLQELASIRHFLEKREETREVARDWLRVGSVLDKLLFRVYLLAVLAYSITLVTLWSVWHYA
Sequence of D(4) dopamine receptor (P21917 whole entry): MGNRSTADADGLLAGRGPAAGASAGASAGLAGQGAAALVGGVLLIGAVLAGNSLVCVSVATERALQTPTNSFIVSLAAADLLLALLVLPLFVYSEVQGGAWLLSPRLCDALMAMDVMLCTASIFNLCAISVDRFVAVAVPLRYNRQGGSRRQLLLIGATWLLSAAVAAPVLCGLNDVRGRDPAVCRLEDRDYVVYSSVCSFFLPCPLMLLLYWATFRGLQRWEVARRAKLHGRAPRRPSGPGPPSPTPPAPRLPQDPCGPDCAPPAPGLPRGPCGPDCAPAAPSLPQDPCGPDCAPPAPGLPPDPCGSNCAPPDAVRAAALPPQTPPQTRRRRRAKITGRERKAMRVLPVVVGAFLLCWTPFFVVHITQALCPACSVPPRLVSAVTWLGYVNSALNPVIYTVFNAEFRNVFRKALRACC

SMILES: Cn1c(=O)oc2cc(N3CC4(CN5CCC4CC5)OC3=O)ccc21 (single isomer, unassigned)
- IC50 [1]: > 1 µM

SMILES: Cc1coc2ccc(N3C[C@@]4(CN5CCC4CC5)OC3=O)cc12
- Cmax [2]: 618 ng/mL
- bioavailability [3]: 25.8%
- IC50 (Cytochrome P450 2D6): > 30 µM
- clearance [4]: 70.2 mL/min/kg
- AUC(0-inf) [5]: 2020 ng·h/mL
- Tmax [6]: 0.44 h
- IC50 (Histamine H1 receptor): > 10 µM
- IC50 [7]: > 10 µM
- IC50 (D(4) dopamine receptor): > 10 µM
- Kp [8]: 10.2
- IC50 (D(1A) dopamine receptor): > 10 µM
- Cmax [9]: 384 ng/mL
- Activity (Rattus norvegicus [10]): Active
- AUC(0-inf) [11]: 732 ng·h/mL
- bioavailability [12]: 17.3%
- Vd [13]: 7.59 L/kg
- Tmax [14]: 2.3 h
- half-life [15]: 6 h
- IC50 [16]: > 10 µM
- AUC(0-inf) [17]: 225 ng·h/mL
- clearance [18]: 83.3 mL/min/kg
- AUC(0-inf) [19]: 1010 ng·h/mL
- half-life [20]: 3.3 h
- Activity [21]: Active
- IC50 [22]: > 10 µM
- IC50 (D(2) dopamine receptor): > 10 µM
- IC50 (Adrenergic receptor beta): > 10 µM
- Activity (Cytochrome P450 1A2): Not Active
- Activity (Rattus norvegicus [23]): Active
- Tmax [24]: 3.3 h
- IC50 [25]: > 10 µM
- Tmax [26]: 0.36 h
- AUC(0-inf) [27]: 63 ng·h/mL
- IC50 [28]: > 10 µM
- IC50 [29]: > 10 µM
- Tmax [30]: 2 h
- Cmax [31]: 288 ng/mL
- Activity (Rattus norvegicus [32]): Dose-dependent effect
- half-life [33]: 1.9 h
- IC50 [34]: > 10 µM
- IC50 [35]: 0.01 µM
- IC50 [36]: > 10 µM
- half-life [37]: 1.7 h
- bioavailability [38]: 57.2%
- Activity (Rattus norvegicus [39]): Dose-dependent effect
- Cmax [40]: 120 ng/mL
- Cmax [41]: 9.1 ng/mL
- half-life [42]: 5.4 h
- Cmax [43]: 75.5 ng/mL
- IC50 (Histamine H3 receptor): > 10 µM
- Tmax [44]: 0.38 h
- half-life [45]: 3 h
- IC50 (D(3) dopamine receptor): > 10 µM
- IC50 [46]: > 10 µM
- Activity (Cytochrome P450 2C19): Not Active
- Activity [47]: Partial agonist
- half-life [48]: 4.2 h
- Activity (Cytochrome P450 2C9): Not Active
- bioavailability [49]: 10.5%
- Activity (Cytochrome P450 3A4): Not Active
- bioavailability [50]: 82.8%
- Vd [51]: 10.7 L/kg
- Activity (Rattus norvegicus [52]): Active
- AUC(0-inf) [53]: 387 ng·h/mL
- Ki [1]: 0.003 µM

SMILES: O=C1O[C@]2(CN3CCC2CC3)CN1c1ccc2sccc2c1
- IC50 (Cytochrome P450 2D6): > 30 µM
- Ki [1]: 0.028 µM

SMILES: Cn1c(=O)sc2cc(N3CC4(CN5CCC4CC5)OC3=O)ccc21 (single isomer, unassigned)
- IC50 [1]: > 1 µM

SMILES: Cc1cc2cc(N3C[C@@]4(CN5CCC4CC5)OC3=O)ccc2o1
- IC50 (Cytochrome P450 2D6): > 30 µM
- Ki [1]: 0.038 µM

SMILES: Cc1cc2cc(N3C[C@@]4(CN5CCC4CC5)OC3=O)ccc2s1
- IC50 (Cytochrome P450 2D6): > 30 µM
